Here are results for 2 compounds from patent publication US7368582B2, “Amidomethyl-substituted 2-(4-sulfonylamino)-3-hydroxy-3,4-dihydro-2H-chromen-6-yl compounds, a process and intermediates for their production, and pharmaceutical compositions containing them” (Solvay Pharmaceuticals GmbH, priority 2003, dated 2008).

Each structure is given as a SMILES string.

Data set [1] relates to left atrium of rats' hearts. Put plainly: Functional refractory period prolongation on isolated left atria of rats' hearts in vitro. Also noted: species or system rat (Sprague-Dawley). To be noted: 10 μM. The method, then:
3. Investigation of the Functional Effectiveness of the Substances on the Atrium of Rats' Hearts in Vitro
In this test model it is determined to what extent the Kv 1.5-blocking substances of Formula I result in a prolongation of the functional refractory period in the left atrium of rats. The refractory period is the minimum possible elapsed time between the basic stimulus and additional stimulus in which a renewed contraction can be triggered. The extent of the prolongation of the functional refractory period is a measurement of the antiarrhythmic effectiveness of the substances according to the invention. The functional refractory period is determined by testing on the electrically stimulated preparation at what elapsed time from the preceding contraction a renewed contraction can be triggered by additional electrical stimuli.
The hearts were removed from freshly sacrificed rats (Sprague-Dawley, Charles-River, Germany). The left atria were isolated and fastened to force transducers in a temperature-controlled (30° C.), gasified (O2 95%, CO2 5%) organ bath which was filled with modified Tyrode solution (all values in mM: NaCl 137; KCl 2.7; CaCl2 1.8; MgCl2 0.8; NaHCO3 11.9; NaH2PO4 0.6; glucose 5). In order to trigger regular contractions, the preparations were electrically stimulated (rectangular pulses, pulse magnitude 3.5× threshold stimulus, pulse width 1.5 ms, frequency 1 Hz). Initially, the initial value of the functional refractory period was determined by applying extra pulses in addition to the basic stimulus, the elapsed time from the preceding basic stimulus being shortened until no further additional contraction could be triggered. Then the cumulative addition of increasing concentrations (0.1-10 μM) of the substances of Formula I took place at intervals of 20 min. each, the refractory period being determined again in each case 18 min. after the addition had taken place. Before the measurement, stock solutions of the test substances (3.2 and 0.32 mM in 100% DMSO) were prepared. In order to achieve the desired final concentrations of the substances (0.1-10 μM) in the organ bath (volume 100 ml), corresponding volumes of these stock solutions were then poured into the organ bath.
In each case the prolongation of the functional refractory period (FRP) in the left atrium of the rats' hearts in milliseconds observed after the addition of 10 μM of the respective substance of Formula I to the atrial preparations was given as characteristic variable.

The next data set concerns ventricle of guinea pigs. The data set can be described thus: Functional effectiveness on guinea-pig hearts in vivo (ERP, QT, QRS, systolic blood pressure). Also noted: species or system guinea pig (Dunkin-Hartley). To be noted: 1 min. after 10 μmole/kg i.v.; for QRS / QT / syst. blood pressure (change): guinea pigs; for syst. blood pressure (change): minus effects due to the vehicle, negative values indicate reduction; for ERP: ventricle of guinea pigs, negative values indicate shortening. The source says: 4. Investigation of the Functional Effectiveness of the Substances on Guinea-Pig Hearts in Vivo
In the test model shown below, it was shown that the substances according to the invention at most have slight undesirable proarrhythmic effects on repolarization in the ventricle. To this end, the influence of the compounds of Formula I on the effective refractory period (ERP) and other influencing variables on guinea-pig hearts in vivo were investigated. In this test model, non-selective potassium channel blockers not in accordance with the invention, which also block HERG and/or KvLQT1 channels, result in undesirable prolongation of the ERP and the QT time on an electrocardiogram (═ECG). The QT time is likewise a measurement of the repolarization in the heart. Prolongations of both the ERP and the QT time, respectively, which are due to the substances were independently interpreted as indications of the risk of the occurrence of undesirable torsade-de-pointes arrhythmias. Furthermore, the QRS interval also was determined in each case from the ECG as a measurement of the ventricular rate of spread of stimulus. Even a prolongation of the QRS interval caused by a test substance is connected with an increased risk of undesirable pro-arrhythmic side-effects. Therefore in this test model the lack of an ERP and QT time prolongation signifies a low risk, but the occurrence of a relevant ERP and QT prolongation on the other hand signifies an elevated risk of undesirable pro-arrhythmic effects. Also the lack of a prolongation of the QRS interval which is due to the substances due to the substances of Formula I investigated indicates a low risk of undesirable pro-arrhythmic side-effects, since lack of QRS prolongation indicates an undisturbed spread of stimulus in the ventricle. Conversely, a QRS prolongation, which is typically triggered by Class I antiarrhythmic drugs indicates slowing of the conduction rate and may promote the occurrence of ventricular tachycardias to ventricular fibrillation.
Male guinea pigs (Dunkin-Hartley from Charles River) were anaesthetized (ketamine 50 mg/kg, xylazine 10 mg/kg) and each of them was provided with a venous access via one jugular vein for administration of compounds of Formula I or a vehicle. A bipolar stimulation catheter was fed into the right ventricle of the guinea pigs via the other jugular vein (stimulation frequency 5 Hz). The arterial blood pressure was measured by a catheter located in the carotid artery which was connected to a Statham pressure transducer. The ECG was recorded via needle electrodes. The measured data were digitized via an analog/digital converter, recorded on a computer with suitable software (Ponemah Physiology Platform from Gould, USA) and printed out in parallel on a multichannel printer. After an equilibration period of 45 min., increasing doses of the compounds of Formula I or of the vehicle were administered intravenously (=i.v.) to the guinea pigs at 12-minute intervals. Before the first administration and in each case one minute after administration of increasing doses (0.1−max. 30 μmole/kg) of the substances of Formula I, the effective refractory period was measured. For this, after five normal stimuli in each case an additional pulse was applied and the elapsed time thereof from the preceding pulse was increased until a heart action was triggered. The observed time interval corresponds to the ERP of the ventricular myocardium.
In order to detect possible effects of the test substances on the blood pressure, in the same test model after each administration of substance the systolic and diastolic blood pressure was determined and compared with the previous blood-pressure level. The parameters were recorded automatically 1 and 8 min. after each administration of substance.
Only statistically significant effects were listed, with a t-test with a significance limit of P<0.05 being used for the statistical testing.

Data set [2] concerns hearts of anaesthetised cats. Put plainly: Atrial and ventricular fibrillation threshold in anaesthetised cats in vivo. To be noted: anaesthetized cats, dose 30 μmol/kg i.v. Also noted: species or system cat. The source says: 5. Investigation of the Functional Effectiveness of the Substances on the Hearts of Anaesthetised Cats in Vivo
In the test model shown below, it was shown that the substances according to the invention at most have a marked atrial-selective effect on the heart. After administration of the substances according to the invention, a significant increase in the atrial fibrillation threshold—i.e. the current intensity at which atrial fibrillation occurs—was observed. At the same time, on the other hand, the ventricular fibrillation threshold is influenced only minimally.
Living cats were anaesthetised with chloralose/urethane (50/300 mg/kg i.v.) and were ventilated with ambient air. Then, following thoracotomy, stimulating electrodes were attached to the right atrium and the ventricle. The atrial and ventricular fibrillation threshold was determined in known manner by administration of rectangular pulses of increasing current intensity until atrial or ventricular fibrillation occurred (for performance see in detail: Br. J. Pharmac. 17 (1961) 167; Hdb. exp. Pharmacol. XVI/3 (1975) 131; Pharmacol. Res. 25 Suppl. 2 (1992) 156). The test substances of Formula I were dissolved in propylene glycol (80%) and administered intravenously in increasing doses (5-30 μmol/kg). Atrial and ventricular fibrillation thresholds were then determined at 5-minute intervals in known manner after the addition of the respective dose. The increase in the respective fibrillation threshold due to the substances investigated was expressed in percent of the value before administration of substance, i.e. a doubling of the fibrillation threshold corresponds to an increase of 100%.

For the next data set, the target named is T1, Kv 1.3-potassium channel (Homo sapiens, UniProt P22001).
T1 construct: expressed in transfected cells; host or cells: CHO cells, stably transfected with the Kv 1.3 plasmid using DMRIE-C
Put plainly: In-vitro Kv 1.3-potassium channel-blocking effect (membrane potential-sensitive fluorescent dye in transfected CHO cells). The conditions noted are these: 10 μM test substance; CHO cells transfected with Kv 1.3; relative to reference margatoxin. Format: cell-based. The source says:
2. In-Vitro Investigation of the Kv 1.3-Potassium Channel-Blocking Effect of the Substances
In this test model, known oocytes of the Chinese hamster (═CHO) are used which are stably transfected with the Kv 1.3-potassium channel. The blockade of the cell-inherent Kv 1.3-potassium channel activity in the transfected cells is accompanied by a positive shift in the membrane potential from approx. −40 mV to −30 mV, whereas in the wild-type CHO cells investigated in parallel no significant shift in the membrane potential is triggered. A change in the membrane potential is thus connected to the reduction in the Kv 1.3-potassium channel activity. By blocking the Kv 1.3-potassium channels e.g. with substances of Formula I and the resulting change in the membrane potential, an accumulation of a membrane potential-sensitive fluorescent dye in intracellular compartments of the oocytes and ultimately increasing fluorescence occurs. The change in the membrane potential of the oocytes is therefore measured indirectly via the increase in fluorescence of the membrane potential-senstive dyes.
The cells were transfected with the Kv 1.3 plasmid in known manner with a commercially obtainable transfection reagent (DMRIE-C from Gibco BRL, Germany). The successful transfection was verified by immunofluorescence and by “patch-clamp” investigations of the potassium ion current. The fluorescence measurements were performed on a Tecan Safire fluorescence reader from Tecan, Germany. In each case, the increase in the fluorescent intensity caused by the blockade of the Kv 1.3-potassium channels in the oocytes with substances of Formula I in a concentration of 10 μM was determined as characteristic variable. The increase in the fluorescent intensity was given in each case in percent (%) compared with an increase in the fluorescent intensity caused by the reference substance margatoxin. Margatoxin is known as a selective Kv 1.3-potassium channel blocker (see e.g. M. Garcia-Calvo et al., J. Biol. Chem. 268 (1993) 18866-18874).

[3] abbreviates: percent of value before administration.

T1 sequence (P22001 whole entry): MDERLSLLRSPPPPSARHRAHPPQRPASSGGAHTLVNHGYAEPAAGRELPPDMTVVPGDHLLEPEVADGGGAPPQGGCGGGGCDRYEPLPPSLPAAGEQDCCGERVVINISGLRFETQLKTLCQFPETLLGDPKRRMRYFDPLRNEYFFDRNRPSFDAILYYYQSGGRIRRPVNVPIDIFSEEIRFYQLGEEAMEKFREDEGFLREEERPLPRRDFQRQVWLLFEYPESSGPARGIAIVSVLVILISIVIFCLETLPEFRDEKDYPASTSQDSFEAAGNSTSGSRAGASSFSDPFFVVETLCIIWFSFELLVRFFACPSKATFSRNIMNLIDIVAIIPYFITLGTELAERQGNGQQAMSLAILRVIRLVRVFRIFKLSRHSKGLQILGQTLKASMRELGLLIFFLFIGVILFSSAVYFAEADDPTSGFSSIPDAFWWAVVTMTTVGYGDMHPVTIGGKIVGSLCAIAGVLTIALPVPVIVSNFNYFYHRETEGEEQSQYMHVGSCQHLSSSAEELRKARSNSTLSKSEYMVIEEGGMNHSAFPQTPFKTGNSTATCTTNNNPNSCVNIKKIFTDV

In turn, `CCc1ccc(S(=O)(=O)NC2c3cc(CC(=O)NC4CCCc5ccccc54)ccc3OC(C)(C)C2O)cc1` (centres unmarked) [Example 1, 2-(4-{[(4-Ethylphenyl)sulfonyl]amino}-3-hydroxy-2,2-dimethyl-3,4-dihydro-2H-chromen-6-yl)-N-1,2,3,4-tetrahydronaphth-1-yl acetamide] registered an FRP prolongation in data set [1] of 15 ms. Also, in the data set on ventricle of guinea pigs, the QRS result is listed as “n.s”, the QT result is “n.s”, the “syst. blood pressure (change)” value is “n.s” and the ERP result is listed as “n.s”. In addition, in data set [2], the “Selectivity factor (AFT:VFT)” value is given as 3. Moreover, in data set [2] (setting [3]), the “AFT (increase in the atrial fibrillation threshold)” value is on record as 66% and the “VFT (increase in the ventricular fibrillation threshold)” value worked out at 22%.
Take `CCc1ccc(S(=O)(=O)N[C@@H]2c3cc(CC(=O)NCc4ccccc4)ccc3OC(C)(C)[C@H]2O)cc1` [Example 11]: at Kv 1.3-potassium channel, the “Increase in the fluorescent intensity (% margatoxin)” value is given as 99 % margatoxin. The FRP prolongation in data set [1] amounted to 24 ms. Besides, in the data set on ventricle of guinea pigs, the QRS result is “n.s”, the QT result is “n.s”, the “syst. blood pressure (change)” value is given as “n.s” and the ERP entry was “n.s”.
